Results published in patent publication US10407409B2, “6-(5-hydroxy-1H-pyrazol-1-yl)nicotinamide inhibitors of PHD” (Takeda Pharmaceutical Company Limited, priority 2013, dated 2019).

Assays:
[1] = biological target: PHD2 enzyme (residues 181-417) (Homo sapiens (Human), UniProt Q9GZT9); experiment: Inhibition of PHD enzyme (LC/MS peptide hydroxylation assay); format: biochemical; details: PHD2 (residues 181-417) 5 nM, 60 min pre-incubation; -log(IC50), IC50 molar
Method in brief: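 PHD2 (5 nM final) preincubated with inhibitor 60 min at RT in 50 mM HEPES, 50 mM KCl, 0.5 mM TCEP, 2 uM FeCl2, 0.1 mg/ml BSA, pH 7.3. Reaction started with biotin-peptide (1 uM), 2-oxoglutarate (2 uM), ascorbate (1 mM), quenched at 60 min; hydroxylated product by LC/MS, reported as pIC50.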

[2] = tested on: HIF1a protein in H9c2 rat cardiomyocytes; experiment: Cell-based HIF-alpha stabilization assay (inhibition of PHD in cells); details: Rattus norvegicus, H9c2, 24 h, 24 hrs compound incubation, HIF1a protein by ELISA, read-out: Inhibition of PHD in cells (pEC50) (converted)
Method in brief: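 Rat H9c2 cardiomyocytes, cultured 24 h, were treated 24 h with an 11-point serial dilution of compound. HIF1a in whole-cell lysates was quantified by ELISA as % of the maximal desferrioxamine response. EC50 came from curve fitting; EC50pos is the concentration reaching 50% of the desferrioxamine maximum.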

PHD2 enzyme (residues 181-417), sequence (Q9GZT9 181-417): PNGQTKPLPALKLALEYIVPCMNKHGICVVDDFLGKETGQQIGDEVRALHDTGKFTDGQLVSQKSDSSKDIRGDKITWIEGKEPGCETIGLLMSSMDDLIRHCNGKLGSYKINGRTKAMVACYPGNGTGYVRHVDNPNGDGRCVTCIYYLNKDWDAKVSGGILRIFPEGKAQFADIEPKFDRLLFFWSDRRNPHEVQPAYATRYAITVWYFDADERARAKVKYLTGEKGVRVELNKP

| PHD Inhibition (pIC50) [1] | SMILES | EC50 [2] [nM] |
| --- | --- | --- |
| 8 | Cc1cc(C#N)ccc1-c1cnn(-c2ccc(C(=O)NCCOC(F)(F)F)cn2)c1O [Example 250, 6-(4-(4-cyano-2-methylphenyl)-5-hydroxy-1H-pyrazol-1-yl)-N-(2-(trifluoromethoxy)ethyl)nicotinamide] | 457 |
| 7.59 | Cc1cc(C#N)ccc1-c1cnn(-c2ccc(C(=O)N(C)CCCN(C)C)cn2)c1O [Example 313, 6-(4-(4-cyano-2-methylphenyl)-5-hydroxy-1H-pyrazol-1-yl)-N-(3-(dimethylamino)propyl)-N-methylnicotinamide] | 1120 |
| 8.3 | CCNC(=O)c1ccc(-n2ncc(-c3ccc(C#N)cc3C)c2O)nc1 [Example 108] | 110 |
| 8.1 | Cc1cc(C#N)ccc1-c1cnn(-c2ccc(C(=O)NC3CCN(C4CC4)CC3)cn2)c1O [Example 140, 6-(4-(4-cyano-2-methylphenyl)-5-hydroxy-1H-pyrazol-1-yl)-N-(1-cyclopropylpiperidin-4-yl)nicotinamide] | 120 |
| 8.3 | COc1cc(-c2cnn(-c3ccc(C(=O)NCCC4CCCCO4)cn3)c2O)ccn1 (stereo not drawn) [Example 207, 6-(5-hydroxy-4-(2-methoxypyridin-4-yl)-1H-pyrazol-1-yl)-N-(2-(tetrahydro-2H-pyran-2-yl)ethyl)nicotinamide] | 123 |
| 5.43 | Cc1cc(-c2cnn(-c3ccc(C(=O)NCC4CCOCC4)cn3)c2O)ccn1 [Example 223, 6-(5-hydroxy-4-(2-methylpyridin-4-yl)-1H-pyrazol-1-yl)-N-((tetrahydro-2H-pyran-4-yl)methyl)nicotinamide] | 50100 |
| 8.04 | Cc1cc(C#N)ccc1-c1cnn(-c2ccc(C(=O)N3C[C@H]4CN(C)C[C@H]4C3)cn2)c1O [Example 292, 4-(5-hydroxy-1-(5-((3aR,6aS)-5-methyloctahydropyrrolo[3,4-c]pyrrole-2-carbonyl)pyridin-2-yl)-1H-pyrazol-4-yl)-3-methylbenzonitrile] | 407 |
| 7.68 | N#Cc1ccc(-c2cnn(-c3ccc(C(=O)N[C@@H]4CCOC4)cn3)c2O)cc1 [Example 154, (R)-6-(4-(4-cyanophenyl)-5-hydroxy-1H-pyrazol-1-yl)-N-(tetrahydrofuran-3-yl)nicotinamide] | 1480 |
| 7.62 | N#Cc1ccc(-c2cnn(-c3ccc(C(=O)NC4CCCOC4)cn3)c2O)cc1 (stereo not drawn) [Example 155, 6-(4-(4-cyanophenyl)-5-hydroxy-1H-pyrazol-1-yl)-N-(tetrahydro-2H-pyran-3-yl)nicotinamide] | 1550 |
| 6.85 | COCCCCNC(=O)c1ccc(-n2ncc(-c3ccc(C#N)cc3OC)c2O)nc1 [Example 238, 6-(4-(4-cyano-2-methoxyphenyl)-5-hydroxy-1H-pyrazol-1-yl)-N-(4-methoxybutyl)nicotinamide] | 468 |
| 8.4 | Cc1cc(C#N)ccc1-c1cnn(-c2ccc(C(=O)NCCC3CCCO3)cn2)c1O (stereo not drawn) [Example 245, 6-(4-(4-cyano-2-methylphenyl)-5-hydroxy-1H-pyrazol-1-yl)-N-(2-(tetrahydrofuran-2-yl)ethyl)nicotinamide] | 240 |
| 8.35 | Cc1cc(C#N)ccc1-c1cnn(-c2ccc(C(=O)N3CC(N(C)C)C3)cn2)c1O [Example 345, 4-(1-(5-(3-(dimethylamino)azetidine-1-carbonyl)pyridin-2-yl)-5-hydroxy-1H-pyrazol-4-yl)-3-methylbenzonitrile] | 363 |
| 6.91 | CC(C)N1CCC(NC(=O)c2ccc(-n3ncc(-c4ccc(C#N)cc4)c3O)nc2)CC1 [Example 115, 6-(4-(4-cyanophenyl)-5-hydroxy-1H-pyrazol-1-yl)-N-(1-isopropylpiperidin-4-yl)nicotinamide] | 1820 |
| 8 | Cc1cc(C#N)ccc1-c1cnn(-c2ccc(C(=O)NCC3CCN(C)C3)cn2)c1O (stereo not drawn) [Example 96, 6-(4-(4-cyano-2-methylphenyl)-5-hydroxy-1H-pyrazol-1-yl)-N-((1-methylpyrrolidin-3-yl)methyl)nicotinamide] | 56.2 |
| 8.10 | Cc1cc(C#N)ccc1-c1cnn(-c2ccc(C(=O)N3CC[C@@H](N(C)C)C3)cn2)c1O [Example 413, (R)-4-(1-(5-(3-(dimethylamino)pyrrolidine-1-carbonyl)pyridin-2-yl)-5-hydroxy-1H-pyrazol-4-yl)-3-methylbenzonitrile] | 2090 |
| 8.3 | COC(C)CCNC(=O)c1ccc(-n2ncc(-c3ccc(C#N)cc3)c2O)nc1 (stereo not drawn) [Example 145, 6-(4-(4-cyanophenyl)-5-hydroxy-1H-pyrazol-1-yl)-N-(3-methoxybutyl)nicotinamide] | 501 |
| 8.2 | COCCCN(C)C(=O)c1ccc(-n2ncc(-c3ccc(C#N)cc3C)c2O)nc1 [Example 251, 6-(4-(4-cyano-2-methylphenyl)-5-hydroxy-1H-pyrazol-1-yl)-N-(3-methoxypropyl)-N-methylnicotinamide] | 324 |
| 7.33 | C[C@@H](NC(=O)c1ccc(-n2ncc(-c3ccc(C#N)cc3)c2O)nc1)C1CCOCC1 [Example 172, (R)-6-(4-(4-cyanophenyl)-5-hydroxy-1H-pyrazol-1-yl)-N-(1-(tetrahydro-2H-pyran-4-yl)ethyl)nicotinamide] | 1260 |
| 8.2 | Cc1cc(C#N)ccc1-c1cnn(-c2ccc(C(=O)NCC3CCC3)cn2)c1O [Example 180, 6-(4-(4-cyano-2-methylphenyl)-5-hydroxy-1H-pyrazol-1-yl)-N-(cyclobutylmethyl)nicotinamide] | 398 |
| 7.18 | N#Cc1ccc(-c2cnn(-c3ccc(C(=O)NCCCN4CCOCC4)cn3)c2O)cc1 [Example 91, 6-(4-(4-cyanophenyl)-5-hydroxy-1H-pyrazol-1-yl)-N-(3-morpholinopropyl)nicotinamide] | 933 |
| 8 | Cc1cc(C#N)ccc1-c1cnn(-c2ccc(C(=O)NCCCN3CCCC3)cn2)c1O [Example 105, 6-(4-(4-cyano-2-methylphenyl)-5-hydroxy-1H-pyrazol-1-yl)-N-(3-(pyrrolidin-1-yl)propyl)nicotinamide] | 61.7 |
| 7.08 | COCC(C)(C)NC(=O)c1ccc(-n2ncc(-c3ccc(C#N)cc3C)c2O)nc1 [Example 65, 6-(4-(4-cyano-2-methylphenyl)-5-hydroxy-1H-pyrazol-1-yl)-N-(1-methoxy-2-methylpropan-2-yl)nicotinamide] | 182 |
| 8.09 | Cc1cc(C#N)ccc1-c1cnn(-c2ccc(C(=O)N3CCC[C@@H](N(C)C)C3)cn2)c1O [Example 315, (R)-4-(1-(5-(3-(dimethylamino)piperidine-1-carbonyl)pyridin-2-yl)-5-hydroxy-1H-pyrazol-4-yl)-3-methylbenzonitrile] | 562 |
| 8.28 | Cc1cc(C#N)ccc1-c1cnn(-c2ccc(C(=O)N3CCC[C@@H](N(C)C4CC4)C3)cn2)c1O [Example 383, (R)-4-(1-(5-(3-(cyclopropyl(methyl)amino)piperidine-1-carbonyl)pyridin-2-yl)-5-hydroxy-1H-pyrazol-4-yl)-3-methylbenzonitrile] | 1100 |
| 8.39 | Cc1c(-c2cnn(-c3ccc(C(=O)N4CCN(C5CC5)CC4)cn3)c2O)ccc(C#N)c1F [Example 307, 4-(1-(5-(4-cyclopropylpiperazine-1-carbonyl)pyridin-2-yl)-5-hydroxy-1H-pyrazol-4-yl)-2-fluoro-3-methylbenzonitrile] | 2340 |
| 7.83 | COCCN1CCC(N(C)C(=O)c2ccc(-n3ncc(-c4ccc(C#N)cc4C)c3O)nc2)CC1 [Example 427, 6-(4-(4-cyano-2-methylphenyl)-5-hydroxy-1H-pyrazol-1-yl)-N-(1-(2-methoxyethyl)piperidin-4-yl)-N-methylnicotinamide] | 646 |
| 7.68 | N#Cc1ccc(-c2cnn(-c3ccc(C(=O)N[C@H]4CC[C@H](O)CC4)cn3)c2O)cc1 [Example 165, 6-(4-(4-cyanophenyl)-5-hydroxy-1H-pyrazol-1-yl)-N-((1r,4r)-4-hydroxycyclohexyl)nicotinamide] | 251 |
| 8.20 | Cc1cc(C#N)ccc1-c1cnn(-c2ccc(C(=O)N3CCN(C(C)C)[C@H](C)C3)cn2)c1O [Example 379, (R)-4-(5-hydroxy-1-(5-(4-isopropyl-3-methylpiperazine-1-carbonyl)pyridin-2-yl)-1H-pyrazol-4-yl)-3-methylbenzonitrile] | 794 |
| 8.00 | Cc1cc(C#N)ccc1-c1cnn(-c2ccc(C(=O)N3CCN(C4CCC4)CC3)cn2)c1O [Example 373, 4-(1-(5-(4-cyclobutylpiperazine-1-carbonyl)pyridin-2-yl)-5-hydroxy-1H-pyrazol-4-yl)-3-methylbenzonitrile] | 1200 |
| 7.28 | COCC1(NC(=O)c2ccc(-n3ncc(-c4ccc(C#N)cc4)c3O)nc2)CCCC1 [Example 149, 6-(4-(4-cyanophenyl)-5-hydroxy-1H-pyrazol-1-yl)-N-(1-(methoxymethyl)cyclopentyl)nicotinamide] | 776 |
